Experimental data reported in US20190375708A1 (VenatoRx Pharmaceuticals, Inc., priority 2018, published 2019).

Key:
[1] = In vitro cytotoxicity assay (MTT cell viability) in HepG2 cells; format: cell-based, human; conditions: human
Summary of the method: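 Parental HepG2 cells in EMEM + 10% FBS were exposed to compounds (8 half-log dilutions, 30 μM to 1.0 nM) for 7 days at 37 °C, 5% CO2. MTT was then added for 3-4 h, formazan dissolved in DMSO and absorbance read at 492 nm; CC50 came from 4-parameter fits against vehicle controls.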

[2] = tested on: HBV replication in HepAD38 cells; assay: Anti-HBV replication assay in HepAD38 cells (QPCR of extracellular HBV DNA); format: cell-based, HBV (genotype D, serotype ayw); conditions: Hepatitis B virus, 168 h, 7 days incubation, extracellular HBV DNA by QPCR, read-out: Anti-HBV EC50
Summary of the method: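 HepAD38 cells (HepG2 carrying a tet-repressible HBV genotype D genome) were seeded in tetracycline-free medium and treated next day with compound […] for 7 days. Supernatant HBV DNA was measured by QPCR against a standard curve; EC50 came from 4-parameter fits of inhibition versus DMSO control.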

Structure (SMILES) | CC50 at 7 days [1] | EC50 [2]
Cc1cc(NC(=O)c2c(C)c(C(=O)C(=O)N[C@@H]3CCOC[C@H]3O)n(C)c2C)ccc1F [Example 149, N-(4-fluoro-3-methylphenyl)-5-(2-(((3S,4R)-3-hydroxytetrahydro-2H-pyran-4-yl)amino)-2-oxoacetyl)-1,2,4-trimethyl-1H-pyrrole-3-carboxamide] | > 30 µM | < 50 nM
Cc1cc(NC(=O)c2c(C)c(C(=O)C(=O)N[C@H]3CNC(=O)C3)n(C)c2C)ccc1F [Example 611, (R)-N-(4-fluoro-3-methylphenyl)-1,2,4-trimethyl-5-(2-oxo-2-((5-oxopyrrolidin-3-yl)amino)acetyl)-1H-pyrrole-3-carboxamide] | > 30 µM | < 50 nM
Cc1cc(NC(=O)c2c(C)c(C(=O)C(=O)N[C@@H](C)CO)n(C)c2C)ccc1F [Example 217, (S)-N-(4-ffluoro-3-methylphenyl)-5-(2-((1-hydroxypropan-2-yl)amino)-2-oxoacetyl)-1,2,4-trimethyl-1H-pyrrole-3-carboxamide] | > 30 µM | < 50 nM
Cc1cc(NC(=O)c2c(C)c(C(=O)C(=O)NC(C)(C)C)n(CCF)c2C)cnc1F [Example 225, 5-(2-(tert-butylamino)-2-oxoacetyl)-N-(6-fluoro-5-methylpyridin-3-yl)-1-(2-fluoroethyl)-2,4-dimethyl-1H-pyrrole-3-carboxamide] | > 30 µM | 500 to 1000 nM
Cc1c(C(=O)Nc2ccnc(F)c2)c(C)n(C)c1C(=O)C(=O)NC12CC3CC(CC(O)(C3)C1)C2 [Example 188, N-(2-fluoropyridin-4-yl)-5-(2-(((1r,3s,5R,7S)-3-hydroxyadamantan-1-yl)amino)-2-oxoacetyl)-1,2,4-trimethyl-1H-pyrrole-3-carboxamide] | > 30 µM | 50 to 499 nM
Cc1cc(NC(=O)c2c(C)c(C(=O)C(=O)N3CCC(F)(F)C3)n(C)c2C)cnc1F [Example 192, 5-(2-(3,3-difluoropyrrolidin-1-yl)-2-oxoacetyl)-N-(6-fluoro-5-methylpyridin-3-yl)-1,2,4-trimethyl-1H-pyrrole-3-carboxamide] | > 30 µM | 500 to 1000 nM
Cc1cc(NC(=O)c2c(C)c(C(=O)C(=O)NC3(CO)CC(F)(F)C3)n(C)c2C)cnc1F [Example 184, 5-(2-((3,3-difluoro-1-(hydroxymethyl)cyclobutyl)amino)-2-oxoacetyl)-N-(6-fluoro-5-methylpyridin-3-yl)-1,2,4-trimethyl-1H-pyrrole-3-carboxamide] | > 30 µM | < 50 nM
Cc1cc(NC(=O)c2c(C)c(C(=O)C(=O)Nc3ccc(N4CCOCC4)nc3)n(C)c2C)ccc1F [Example 266, N-(4-fluoro-3-methylphenyl)-1,2,4-trimethyl-5-(2-((6-morpholinopyridin-3-yl)amino)-2-oxoacetyl)-1H-pyrrol-3-carboxamide] | > 30 µM | 50 to 499 nM
Cc1cc(NC(=O)c2c(C)c(C(=O)C(=O)N[C@@H]3CCC[C@@H](O)C3)n(C)c2C)ccc1F [Example 287, N-(4-fluoro-3-methylphenyl)-5-(2-(((1R,3R)-3-hydroxycyclohexyl)amino)-2-oxoacetyl)-1,2,4-trimethyl-1H-pyrrole-3-carboxamide] | > 30 µM | < 50 nM
Cc1c(C(=O)Nc2ccc(F)c(Cl)c2)c2n(c1C(=O)C(=O)N[C@H]1CCC[C@H]1O)CCCC2 [Example 451, N-(3-chloro-4-fluorophenyl)-3-(2-(((1S,2R)-2-hydroxycyclopentyl)amino)-2-oxoacetyl)-2-methyl-5,6,7,8-tetrahydroindolizine-1-carboxamide] | 5 to 30 µM | 50 to 499 nM
Cc1cc(NC(=O)c2c(C)c(C(=O)C(=O)NC3(C)CCN(c4ncccn4)CC3)n(C)c2C)ccc1F [Example 691, N-(4-fluoro-3-methylphenyl)-1,2,4-trimethyl-5-(2-((4-methyl-1-(pyrimidin-2-yl)piperidin-4-yl)amino)-2-oxoacetyl)-1H-pyrrole-3-carboxamide] | > 30 µM | < 50 nM
Cc1noc(C(C)NC(=O)C(=O)c2c(C)c(C(=O)Nc3ccc(F)c(C)c3)c(C)n2C)n1 (stereo not drawn) [Example 82, N-(4-fluoro-3-methylphenyl)-1,2,4-trimethyl-5-(2-((1-(3-methyl-1,2,4-oxadiazol-5-yl)ethyl)amino)-2-oxoacetyl)-1H-pyrrole-3-carboxamide] | > 30 µM | < 50 nM
Cc1cc(NC(=O)c2c(C)c(C(=O)C(=O)NC3(CN4CCOCC4)CCCCC3)n(C)c2C)ccc1F [Example 596, N-(4-fluoro-3-methylphenyl)-1,2,4-trimethyl-5-(2-((1-(morpholinomethyl)cyclohexyl)amino)-2-oxoacetyl)-1H-pyrrole-3-carboxamide] | > 30 µM | < 50 nM
COC(=O)[C@H](NC(=O)C(=O)c1c(C)c(C(=O)Nc2ccc(F)c(C)c2)c(C)n1C)[C@@H](C)O [Example 46, methyl (2-(4-((4-fluoro-3-methylphenyl)carbamoyl)-1,3,5-trimethyl-1H-pyrrol-2-yl)-2-oxoacetyl)-D-allothreoninate] | > 30 µM | < 50 nM
Cc1c(C(=O)Nc2cccc(C(F)F)c2)c(C)n(C)c1C(=O)C(=O)N[C@]1(C)CC[C@H](O)CC1 [Example 701, N-(3-(difluoromethyl)phenyl)-5-(2-(((1s,4s)-4-hydroxy-1-methylcyclohexyl)amino)-2-oxoacetyl)-1,2,4-trimethyl-1H-pyrrole-3-carboxamide] | > 30 µM | < 50 nM
Cc1cc(NC(=O)c2c(Cl)c(C(=O)C(=O)NC(C)(C)CO)n3c2CCC3)cnc1F [Example 575, 6-chloro-N-(6-fluoro-5-methylpyridin-3-yl)-5-(2-((1-hydroxy-2-methylpropan-2-yl)amino)-2-oxoacetyl)-2,3-dihydro-1H-pyrrolizine-7-carboxamide] | > 30 µM | 500 to 1000 nM
Cc1cc(NC(=O)c2c(C)c(C(=O)C(=O)Nc3ccc(F)c(F)c3)n(C)c2C)cnc1F [Example 341, 5-(2-((3,4-difluorophenyl)amino)-2-oxoacetyl)-N-(5-fluoro-5-methylpyridin-3-yl)-1,2,4-trimethyl-1H-pyrrole-3-carboxamide] | > 30 µM | 50 to 499 nM
Cc1cc(NC(=O)c2c(C)c(C(=O)C(=O)NC(C)(C)CO)n(C)c2Cl)ccc1F [Example 391, 2-chloro-N-(44-fluoro-3-methylphenyl)-5-(2-((1-hydroxy-2-methylpropan-2-yl)amino)-2-oxoacetyl)-1 4-dimethyl-1H-pyrrole-3-carboxamide] | > 30 µM | > 1000 nM
CO[C@H]1CC[C@@H](NC(=O)C(=O)c2c(C)c(C(=O)Nc3ccc(F)c(C)c3)c(C)n2C)CC1 [Example 268, N-(4-fluoro-3-methylphenyl)-5-(2-(((1s,4s)-4-methoxycyclohexyl)amino)-2-oxoacetyl)-1,2,4-trimethyl-1H-pyrrole-3-carboxamide] | 5 to 30 µM | < 50 nM
Cc1cc(NC(=O)c2c(C)c(C(=O)C(=O)NC3C4CC5CC(C4)CC3C5)n(C)c2C)ccc1F (stereo not drawn) [Example 17, 5-(2-(((1r,3r)-adamantan-2-yl)amino)-2-oxoacetyl)-N-(4-fluoro-3-methylphenyl)-1,2,4-trimethyl-1H-pyrrole-3-carboxamide] | 0.5 to 4.99 µM | < 50 nM
Cc1cc(NC(=O)c2cc(C(=O)C(=O)N[C@H](C(N)=O)[C@@H](C)O)n3c2CCCC3)ccc1F [Example 401] | > 30 µM | > 1000 nM
Cc1cc(NC(=O)c2c(C)c(C(=O)C(=O)N[C@@H](C(N)=O)[C@@H](C)O)n(C)c2C)ccc1F [Example 61, 5-(2-(((2R,3R)-1-amino-3-hydroxy-1-oxobutan-2-yl)amino)-2-oxoacetyl)-N-(4-fluoro-3-methylphenyl)-1,2,4-trimethyl-1H-pyrrole-3-carboxamide] | > 30 µM | 50 to 499 nM
O=C(NC1(CO)CC1)C(=O)c1c(Cl)c(C(=O)Nc2ccc(F)c(Cl)c2)c2n1CCCC2 [Example 501, 2-chloro-N-(3-chloro-4-fluorophenyl)-3-(2-((1-(hydroxymethyl)cyclopropyl)amino)-2-oxoacetyl)-5,6,7,8-tetrahydroindolizine--1 carboxamide] | 5 to 30 µM | 50 to 499 nM
Cc1cc(NC(=O)c2c(C)c(C(=O)C(=O)N[C@@H]3c4ccccc4C[C@H]3O)n(C)c2C)ccc1F [Example 261, N-(4-fluoro-3-methylphenyl)-5-(2-(((1R,2R)-2-hydroxy-2,3-dihydro-1H-inden-1-yl)amino)-2-oxoacetyl)-1,2,4-trimethyl-1H-pyrrole-3-carboxamide] | 0.5 to 4.99 µM | < 50 nM
Cc1cc(NC(=O)c2c(Cl)c(C(=O)C(=O)NC(C)(C)C)n3c2CCCC3)ccc1F [Example 489] | > 30 µM | < 50 nM
Cc1cc(NC(=O)c2c(C)c(C(=O)C(=O)Nc3ccc(F)nc3)n(C)c2C)ccc1F [Example 212, N-(4-fluoro-3-methylphenyl)-5-(2-((6-fluoropyridin-3-yl)amino)-2-oxoacetyl)-1,2,4-trimethyl-1H-pyrrole-3-carboxamide] | 5 to 30 µM | < 50 nM
O=C(N[C@H]1C[C@H](O)C1)C(=O)c1c(Cl)c(C(=O)Nc2ccc(F)c(F)c2)c2n1CCC2 [Example 551, 6-chloro-N-(3,4-difluorophenyl)-5-(2-(((1r,3r)-3-hydroxycyclobutyl)amino)-2-oxoacetyl)-2,3-dihydro-1H-pyrrolizine-7-carboxamide] | > 30 µM | 50 to 499 nM
